Consider eight compounds from ChEMBL document CHEMBL1122776, “Synthesis and antitumor activity of some aromatic seleno lactones” (J Med Chem, 1984).

Format in all cases: cell-based
What all share (conditions): read-out: LD50

Data set [1] in a line: In vitro cytotoxic activity against human colon tumor-8r cells in culture and LD50 was reported at the end of incubation period of 48 hours.
Data set [2] in a line: In vitro cytotoxic activity against human colon tumor-8r cells in culture and LD50 was reported at the end of incubation period of 72 hours.
Data set [3] is described as follows: In vitro cytotoxic activity against of human colon tumor-8r cells in culture and LD50 was reported at the end of incubation period of 24 hours.
Data set [4] can be described thus: In vitro cytotoxic activity against human colon tumor-8r cells in culture and LD50 was reported at the end of incubation period of 24 hours.
The nature of data set [5]: In vitro cytotoxic activity against of human colon tumor-8r cells in culture and LD50 was reported at the end of incubation period of 48 hours.
Data set [6] can be described thus: In vitro cytotoxic activity against of human colon tumor-8r cells in culture and LD50 was reported at the end of incubation period of 72 hours.

In the case of `CC(=O)Oc1cccc2c1CC(C[Se]c1ccccc1)C(=O)O2` (centres undefined), the CC50 at 48 h in data set [1] was found to be 240 µM. In addition, the CC50 at 72 h in data set [2] was 180 µM. Moreover, the CC50 at 24 h in data set [3] amounted to 290 µM.

As to `CCCCCCCCCC(=O)Oc1cccc2c1CC(C[Se]c1ccccc1)C(=O)O2` (centres undefined), in data set [1], the CC50 at 48 h is 150 µM. The CC50 at 24 h in data set [4] is 230 µM. Also, the CC50 at 72 h in data set [2] was 140 µM.

As to `CCC(=O)Oc1cccc2c1CC(C[Se]c1ccccc1)C(=O)O2` (centres undefined), the CC50 at 48 h in data set [5] amounted to 250 µM. The CC50 at 24 h in data set [4] is 310 µM. Further, the CC50 at 72 h in data set [6] turned out to be 210 µM.

Take `O=C1Oc2cccc(OC3CCCCO3)c2CC1C[Se]c1ccccc1` (centres undefined): the CC50 at 48 h in data set [1] was found to be 190 µM. In addition, the CC50 at 24 h in data set [4] was determined as 260 µM. The CC50 at 72 h in data set [2] turned out to be 150 µM.

Turning to `CCCCCCCC(=O)Oc1cccc2c1CC(C[Se]c1ccccc1)C(=O)O2` (centres undefined), the CC50 at 48 h in data set [5] is 230 µM. In addition, the CC50 at 72 h in data set [6] is 180 µM. In addition, the CC50 at 24 h in data set [3] was 300 µM.

Turning to `O=C1Oc2cccc(O)c2CC1C[Se]c1ccccc1` (centres undefined), in data set [1], the CC50 at 48 h came to 280 µM. Moreover, the CC50 at 24 h in data set [4] was determined as 330 µM. Also, the CC50 at 72 h in data set [2] turned out to be 230 µM.

Turning to `CCCC(=O)Oc1cccc2c1CC(C[Se]c1ccccc1)C(=O)O2` (centres undefined), in data set [1], the CC50 at 48 h was found to be 270 µM. Besides, the CC50 at 24 h in data set [4] stood at 370 µM. In addition, the CC50 at 72 h in data set [2] turned out to be 320 µM.

In the case of `Sc1ncnc2nc[nH]c12` [MERCAPTOPURINE ANHYDROUS], the CC50 at 48 h in data set [1] was found to be 350 µM. Moreover, in data set [4], the CC50 at 24 h was determined as 760 µM. The CC50 at 72 h in data set [2] was 280 µM.
